The values below are quoted from earlier work in US10413528B2, “Methods to inhibit infection during wound healing with topical compositions including amino acids” (priority 2014, dated 2019).

Conditions in the first data set: not given
In the case of `CC(C)C[C@H](N)C(=O)O` [leucine], the “maximum solubility in water” value was 22.4 mg/mL.

The data set is the same for the next values; noted with them: in water.
As for `NC(=O)CC[C@H](N)C(=O)O` [glutamine], the maximum aqueous solubility was 35 mg/mL.

In the case of `C[C@H](N)C(=O)O` [alanine], the maximum aqueous solubility is 166.5 mg/mL.

On to `CC(C)C[C@H](N)C(=O)O` [leucine], for which the maximum aqueous solubility is 22.4 mg/mL.

For `CC(C)[C@H](N)C(=O)O` [valine], the maximum aqueous solubility was 85 mg/mL.

`CSCC[C@H](N)C(=O)O` [methionine]: the maximum aqueous solubility is 53.7 mg/mL.

`N[C@@H](Cc1c[nH]cn1)C(=O)O` [histidine]: the maximum aqueous solubility was 41.6 mg/mL.
